Measurements: patent publication US20260285992A1, “GIP ACTIVITY MODULATORS AND ORTHOSTATIC INTOLERANCE” (Antag Therapeutics ApS, priority 2023, published 2026)

What was measured:
[1] = in vivo; cited from earlier work
[2] = Orthostatic challenges before and after subcutaneous GIP (1-42) or placebo in fasted healthy subjects: heart rate, blood pressure and clinical signs; assay type: in vivo, human
Experimental: Synthetic human GIP (1-42) (GIP) (PolyPeptide Group, Strasbourg, France) was dissolved in a sodium hydrogen carbonate buffer with 0.5% human serum albumin in NaCl 9 mg/ml to a final concentration of 4 mg/ml. The solution was sterile filtered and dispensed into glass ampoules. On the appropriate study days, the GIP solutions were further diluted in saline (NaCl 9 mg/ml) to 125 μg/ml. Saline (NaCl 9 mg/mL) was used as placebo.
At the beginning of each study day, participants were weighed and received either a placebo injection or a weight-dependent GIP (1-42) dose of 2.7 μg/kg at time 0.
Four healthy, non-medicated participants between 33-40 years old (one male and three females) were included in the study. On each of the two study days, participants arrived after an overnight fast (at least 10 h fasting). To enable continuous heart rate monitoring, three electrodes compatible with the Holter Spiderview recorder were placed over the rib at V5, on the xiphoid muscle at the bottom of the sternum, and at the sternum over the manubrium after the skin was disinfected or shaved and disinfected for the male. Baseline characterization was initiated at timepoint-60 min and lasted for one hour. For baseline characterization, the participants alternated between the supine position and 10 min orthostatic challenges initiated at timepoints −45 min and −20 min. Orthostatic challenges were elicited by actively standing up from the hospital bed. At timepoint 0 min, the participants received a subcutaneous injection of either 2.7 μg/kg GIP or saline in a single-blinded manner. Following the injection, the participants rested in the supine position for one hour when not doing 10 min orthostatic challenges initiated at 15 min and 40 min post-injection. At time points −50 min, −40 min, −30 min, 10 min, 20 min, 45 min, and 55 min systolic- and diastolic blood pressure as well as heart rate were measured using the Omron M2 blood pressure monitor. The two study days were identical except for the injection of either GIP or saline. Fasting prior to administration of GIP mimics the body's natural response to eating, as eating induces GIP secretion. The method employed thus mimics fasting or postprandial conditions with the emphasis on GIP's physiological effects.

YAEGTFISDYSIAMDKIHQQDFVNWLLAQKGKKNDWKHNITQ [GIP]
half-life [1]: ~ 4 min
effect on orthostatic tolerance (conclusion) ([2]; by decreasing SBP and DBP and increasing heart rate, in men and women): significantly worsens orthostatic tolerance
subjects who experienced presyncope and had to lay down ([2]; first orthostatic challenge following GIP administration, four subjects, 2.7 μg/kg s.c.): one of the subjects
increase in heart rate over baseline supine levels, during the orthostatic challenge ([2]; four healthy fasted subjects, 2.7 μg/kg GIP (1-42) s.c., orthostatic challenge, Omron M2 monitor, FIG. 1): 36 bpm
increase in heart rate over baseline supine levels, supine position ([2]; four healthy fasted subjects, 2.7 μg/kg GIP (1-42) s.c., supine, Omron M2 monitor, FIG. 1): 17 bpm
change in DBP during the orthostatic challenge compared to placebo levels ([2]; four healthy fasted subjects, 2.7 μg/kg s.c., orthostatic challenge, FIG. 5): −13 mmHg
decrease in SBP during the orthostatic challenges compared to placebo levels ([2]; four healthy fasted subjects, 2.7 μg/kg s.c., orthostatic challenges, FIG. 4): 12 mmHg
decrease in SBP in the supine position compared to placebo levels ([2]; four healthy fasted subjects, 2.7 μg/kg s.c., supine, FIG. 4): 4-5 mmHg
change in DBP in the supine position compared to placebo levels ([2]; four healthy fasted subjects, 2.7 μg/kg s.c., supine, FIG. 5): −10 mmHg
subjects who reported significant dizziness and lightheadedness ([2]; orthostatic challenges post GIP-injection, 2.7 μg/kg s.c.): Three out of four subjects
increase in heart rate compared to baseline supine heart rate during the first orthostatic challenge post injection (Holter monitor) ([2]; two subjects, 2.7 μg/kg s.c., first orthostatic challenge post injection, FIGS. 2 and 3): 49-50 bpm
gradual increase in supine heart rate compared to baseline supine heart rate (Holter monitor) ([2]; two subjects, 2.7 μg/kg s.c., within 15 min, range depends on the subject, FIGS. 2 and 3): 19-28 bpm
